Publication PMC6300691, “Enhancement of Heat Stability and Kinetic Parameters of the Maize Endosperm ADP-Glucose Pyrophosphorylase by Mutagenesis of Amino Acids in the Small Subunit With High B Factors” (Frontiers in Plant Science, 2018)

Assays:
Assay in all cases: Activation constant from initial rates with varied 3-PGA (0-1 mM) at 2 mM ATP and 2 mM G-1-P, pH 7.4, 15 mM MgCl2, fitted to V = Vmin + Vmax*X/(Ka + X).
Assay type in all cases: biochemical
D242H = molecular target: T1, D242H (Zea mays, UniProt P55241+Q947C0, D242H)
T1 construct: BT2 variant with wild type SH2, E. coli, purified
T1 sequence (Q947C0 1-475 D242H): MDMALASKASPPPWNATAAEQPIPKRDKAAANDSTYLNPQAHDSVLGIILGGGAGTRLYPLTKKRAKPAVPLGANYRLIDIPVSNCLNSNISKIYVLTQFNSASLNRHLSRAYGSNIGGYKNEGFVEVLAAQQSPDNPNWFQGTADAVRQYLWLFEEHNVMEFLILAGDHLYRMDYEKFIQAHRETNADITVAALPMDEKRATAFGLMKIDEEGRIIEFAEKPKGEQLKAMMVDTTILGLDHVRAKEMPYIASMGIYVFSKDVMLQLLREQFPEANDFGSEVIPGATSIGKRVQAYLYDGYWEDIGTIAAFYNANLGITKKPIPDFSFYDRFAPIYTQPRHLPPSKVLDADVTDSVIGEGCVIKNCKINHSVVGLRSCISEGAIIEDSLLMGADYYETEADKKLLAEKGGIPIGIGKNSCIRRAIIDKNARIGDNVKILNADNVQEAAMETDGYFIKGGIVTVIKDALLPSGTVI
T1 sequence (P55241 46-516): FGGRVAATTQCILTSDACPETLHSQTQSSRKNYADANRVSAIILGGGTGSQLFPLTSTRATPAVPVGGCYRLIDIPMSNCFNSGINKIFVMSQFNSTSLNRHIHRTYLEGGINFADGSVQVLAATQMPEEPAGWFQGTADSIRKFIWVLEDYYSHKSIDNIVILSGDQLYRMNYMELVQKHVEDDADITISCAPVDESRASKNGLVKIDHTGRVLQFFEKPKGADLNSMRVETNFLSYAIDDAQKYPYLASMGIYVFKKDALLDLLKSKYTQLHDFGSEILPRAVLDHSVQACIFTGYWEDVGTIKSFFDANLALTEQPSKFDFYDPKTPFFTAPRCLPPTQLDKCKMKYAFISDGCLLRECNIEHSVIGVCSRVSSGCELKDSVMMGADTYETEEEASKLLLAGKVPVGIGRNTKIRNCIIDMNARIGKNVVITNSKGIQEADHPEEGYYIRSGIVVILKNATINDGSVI
Text: (§1) All reactions were developed as above.

E123V = molecular target: T2, E123V (Zea mays, UniProt P55241+Q947C0, E123V)
T2 construct: BT2 variant with wild type SH2, E. coli, purified
T2 sequence (Q947C0 entry or part of it E123V): as the sequence (Q947C0 1-475 D242H) above, with E123V, H242D counted along it
T2 sequence (P55241 46-516): as the sequence (P55241 46-516) above
Text: as §1

K402R = molecular target: T3, K402R (Zea mays, UniProt P55241+Q947C0, K402R)
T3 construct: BT2 variant with wild type SH2, E. coli, purified
T3 sequence (Q947C0 1-475 K402R): as the sequence (Q947C0 1-475 D242H) above, with H242D, K402R counted along it
T3 sequence (P55241 46-516): as the sequence (P55241 46-516) above
Text: as §1

K403L = molecular target: T4, K403L (Zea mays, UniProt P55241+Q947C0, K403L)
T4 construct: BT2 variant with wild type SH2, E. coli, purified
T4 sequence (Q947C0 1-475 K403L): as the sequence (Q947C0 1-475 D242H) above, with H242D, K403L counted along it
T4 sequence (P55241 46-516): as the sequence (P55241 46-516) above
Text: as §1

SH2-ISM = molecular target: T5, SH2-ISM (Zea mays, UniProt P55241+Q947C0, Q96G/D161G/A443R)
T5 construct: SH2-ISM with wild type BT2 (SH2-ISM/BT2-WT), E. coli, purified
T5 sequence (Q947C0 1-475): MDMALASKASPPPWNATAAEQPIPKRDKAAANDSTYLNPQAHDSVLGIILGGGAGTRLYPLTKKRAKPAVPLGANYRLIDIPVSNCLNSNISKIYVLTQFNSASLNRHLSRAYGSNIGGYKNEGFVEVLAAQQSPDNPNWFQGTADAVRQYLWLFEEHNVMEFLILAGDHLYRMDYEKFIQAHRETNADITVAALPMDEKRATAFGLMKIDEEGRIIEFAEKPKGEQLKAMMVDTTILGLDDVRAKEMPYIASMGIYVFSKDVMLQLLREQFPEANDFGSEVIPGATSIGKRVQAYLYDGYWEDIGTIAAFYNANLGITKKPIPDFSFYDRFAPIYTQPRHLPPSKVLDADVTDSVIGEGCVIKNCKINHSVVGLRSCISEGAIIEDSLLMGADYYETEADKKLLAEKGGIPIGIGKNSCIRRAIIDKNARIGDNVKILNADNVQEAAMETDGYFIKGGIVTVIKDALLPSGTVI
T5 sequence (P55241 46-516 Q96G/D161G/A443R): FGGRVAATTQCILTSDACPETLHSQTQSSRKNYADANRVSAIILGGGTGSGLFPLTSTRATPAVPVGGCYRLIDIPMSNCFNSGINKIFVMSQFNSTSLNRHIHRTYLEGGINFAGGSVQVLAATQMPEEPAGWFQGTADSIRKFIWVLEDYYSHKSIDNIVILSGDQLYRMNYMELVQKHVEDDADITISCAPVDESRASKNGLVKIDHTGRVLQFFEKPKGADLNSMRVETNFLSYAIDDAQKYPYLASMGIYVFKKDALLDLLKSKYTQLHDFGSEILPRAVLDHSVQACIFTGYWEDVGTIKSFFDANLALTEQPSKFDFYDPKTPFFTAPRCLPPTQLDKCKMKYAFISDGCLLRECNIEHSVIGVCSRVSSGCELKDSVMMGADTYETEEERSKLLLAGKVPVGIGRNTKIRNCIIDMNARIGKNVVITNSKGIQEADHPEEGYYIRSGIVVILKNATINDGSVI
Text: as §1

O=C(O)[C@H](O)COP(=O)(O)O [3-PGA, 3-phosphoglycerate (3-phosphoglyceric acid)]
3-PGA Ka (activation constant) (D242H): 0.077 ± 0.0077 | 3-PGA Ka (activation constant) (E123V): 0.10 ± 0.036 | 3-PGA Ka (activation constant) (K402R): 0.077 ± 0.014 | 3-PGA Ka (activation constant) (K403L): 0.41 ± 0.049 | 3-PGA Ka (activation constant) (SH2-ISM): 0.056 ± 0.008
